According to patent US20260000075A1, “HERBICIDAL MALONIC ACID MONOAMIDES AND MALONAMIDE ESTERS” (BASF SE, priority 2022, published 2026):

Assays:
APESV = assay: greenhouse pre-emergence herbicidal test; format: in vivo, Apera spica-venti; settings: pre-emergence method, scale from 0 to 100
Source text: (§1) The culture containers used were plastic flowerpots containing loamy sand with approximately 3.0% of humus as the substrate. The seeds of the test plants were sown separately for each species.
(§2) For the pre-emergence treatment, the active ingredients, which had been suspended or emulsified in water, were applied directly after sowing by means of finely distributing nozzles. The containers were irrigated gently to promote germination and growth and subsequently covered with transparent plastic hoods until the test plants had rooted.
(§3) This cover caused uniform germination of the test plants, unless this had been impaired by the active ingredients.
(§4) Depending on the species, the test plants were kept at 10-25° C. or 20-35° C., respectively.
(§5) The test period extended over 2 to 4 weeks. During this time, the test plants were tended, and their response to the individual treatments was evaluated.
(§6) Evaluation was carried out using a scale from 0 to 100. 100 means no emergence of the test plants, or complete destruction of at least the aerial moieties, and 0 means no damage, or normal course of growth. A good herbicidal activity is given at values of 70 to <90 and a very good herbicidal activity is given at values of 90 to 100.
(§7) The test plants used in the greenhouse experiments were of the following species: […]

ECHCG = assay: greenhouse pre-emergence herbicidal test; format: in vivo, Echinocloa crus-galli; settings: pre-emergence method, scale from 0 to 100
Source text: as §1, §2, §3, §4, §5, §6, §7

SETVI [1] = assay: greenhouse pre-emergence herbicidal test; format: in vivo, Setaria viridis; settings: pre-emergence method, application rate 0.500 kg/ha, scale from 0 to 100
Source text: as §1, §2, §3, §4, §5, §6, §7

LOLMU = assay: greenhouse pre-emergence herbicidal test; format: in vivo, Lolium multiflorum; settings: pre-emergence method, application rate 1.000 kg/ha, scale from 0 to 100
Source text: as §1, §2, §3, §4, §5, §6, §7

DIGSA = assay: greenhouse pre-emergence herbicidal test; format: in vivo, Digitaria sanguinalis; settings: pre-emergence method, application rate 1.000 kg/ha, scale from 0 to 100
Source text: as §1, §2, §3, §4, §5, §6, §7

AMARE [2] = assay: greenhouse post-emergence herbicidal test; format: in vivo, Amaranthus retroflexus; settings: post-emergence method, application rate 1.000 kg/ha, scale from 0 to 100
Source text: as §1
(§8) For the post-emergence treatment, the test plants were first grown to a height of 3 to 15 cm, depending on the plant habit, and only then treated with the active ingredients which had been suspended or emulsified in water. For this purpose, the test plants were either sown directly and grown in the same containers, or they were first grown separately as seedlings and transplanted into the test containers a few days prior to treatment.
as §4, §5, §6, §7

AVEFA = assay: greenhouse post-emergence herbicidal test; format: in vivo, Avena fatua; settings: post-emergence method, application rate 1.000 kg/ha, scale from 0 to 100
Source text: as §1, §8, §4, §5, §6, §7

AMARE [3] = assay: greenhouse pre-emergence herbicidal test; format: in vivo, Amaranthus retroflexus; settings: pre-emergence method, scale from 0 to 100
Source text: as §1, §2, §3, §4, §5, §6, §7

SETVI [4] = assay: greenhouse post-emergence herbicidal test; format: in vivo, Setaria viridis; settings: post-emergence method, application rate 0.250 kg/ha, scale from 0 to 100
Source text: as §1, §8, §4, §5, §6, §7

ALOMY = assay: greenhouse post-emergence herbicidal test; format: in vivo, Alopercurus myosuroides; settings: post-emergence method, scale from 0 to 100
Source text: as §1, §8, §4, §5, §6, §7

SETFA = assay: greenhouse pre-emergence herbicidal test; format: in vivo, Setaria faberi; settings: pre-emergence method, application rate 0.500 kg/ha, scale from 0 to 100
Source text: as §1, §2, §3, §4, §5, §6, §7

CCOC(=O)C1(C(=O)Nc2cc(Cl)cc(Cl)c2)CCO1 (stereo not shown) [compound 11.1, ethyl 2-[(3,5-dichlorophenyl)carbamoyl]oxetane-2-carboxylate]
herbicidal activity against APESV (APESV; application rate 1.000 kg/ha): good (A good herbicidal activity is given at values of 70 to <90)
herbicidal activity against ECHCG (ECHCG; application rate 1.000 kg/ha): good (A good herbicidal activity is given at values of 70 to <90)

CSCCOC(=O)C1(C(=O)Nc2cc(F)cc(F)c2)C=CCO1 (stereo not shown) [compound 1.9]
herbicidal activity against SETVI (SETVI [1]): very good (a very good herbicidal activity is given at values of 90 to 100)

O=C(O)C1(C(=O)Nc2cc(F)cc(F)c2)CC=CO1 (stereo not shown) [compound 1.26, 2-[(3,5-difluorophenyl)carbamoyl]-3H-furan-2-carboxylate]
herbicidal activity against LOLMU (LOLMU): very good (a very good herbicidal activity is given at values of 90 to 100)
herbicidal activity against DIGSA (DIGSA): very good (a very good herbicidal activity is given at values of 90 to 100)
herbicidal activity against AMARE (AMARE [2]): good (A good herbicidal activity is given at values of 70 to <90)
herbicidal activity against AVEFA (AVEFA): very good (a very good herbicidal activity is given at values of 90 to 100)

CC1=CCOC1(C(=O)O)C(=O)Nc1cc(Cl)cc(Cl)c1 (stereo not shown) [compound 1.6]
herbicidal activity against AMARE (AMARE [3]; application rate 0.125 kg/ha): good (A good herbicidal activity is given at values of 70 to <90)
herbicidal activity against APESV (APESV; application rate 0.125 kg/ha): good (A good herbicidal activity is given at values of 70 to <90)

O=C(O)C1(C(=O)Nc2cc(F)cc(F)c2)CCO1 (stereo not shown) [compound 11.5]
herbicidal activity against SETVI (SETVI [4]): very good (a very good herbicidal activity is given at values of 90 to 100)

CS(=O)(=O)CCOC(=O)C1(C(=O)Nc2cc(F)cc(F)c2)CCO1 (stereo not shown) [compound 11.8]
herbicidal activity against AMARE (AMARE [3]; application rate 0.250 kg/ha): good (A good herbicidal activity is given at values of 70 to <90)

CCOC(=O)C1(C(=O)Nc2cc(F)cc(F)c2)CC=CO1 (stereo not shown) [compound 1.25, ethyl 2-[(3,5-difluorophenyl)carbamoyl]-3H-furan-2-carboxylate]
herbicidal activity against ALOMY (ALOMY; application rate 0.250 kg/ha): very good (a very good herbicidal activity is given at values of 90 to 100)

5-[(3,5-difluorophenyl)carbamoyl]-hydrofuran-5-carboxylic acid [compound 1.7]
herbicidal activity against APESV (APESV; application rate 0.500 kg/ha): very good (a very good herbicidal activity is given at values of 90 to 100)
herbicidal activity against ECHCG (ECHCG; application rate 0.500 kg/ha): good (A good herbicidal activity is given at values of 70 to <90)
herbicidal activity against SETFA (SETFA): good (A good herbicidal activity is given at values of 70 to <90)
herbicidal activity against ALOMY (ALOMY; application rate 0.500 kg/ha): very good (a very good herbicidal activity is given at values of 90 to 100)
